Assay [1] deals with Malacoceros fuliginosus FaNaC1, wild type (Malacoceros fuliginosus).
In the next assay the test system is A. kurodai FaNaC. Kind of assay: Two-electrode voltage clamp of oocytes expressing A. kurodai FaNaC. The note with it: for peptide potency/activity compared to FMRFa (in words): Fig. 2 A. The class given is cell-based, Aplysia kurodai. An excerpt:
(§1) A. kurodai FaNaC (NCBI GenBank: AB206707.1) and M. fuliginosus FaNaC1 (NCBI GenBank: ON156825.1) cDNAs in tailored pSP64 plasmid vectors including Xenopus laevis UTRs and poly(A) sequences have been described at length previously ([9],[16]). A. kurodai FaNaC F188Y, F188tag (amber stop codon), F453Y, and F453tag mutants were generated by site-directed mutagenesis as detailed in ([17]) with custom primers (Merck) and PCR with Phusion High-Fidelity DNA polymerase (Thermo Fisher). All coding sequences were confirmed by Sanger sequencing (Genewiz). Plasmid DNA was linearized by digesting with EcoRI (Thermo Fisher) and purified with the DNA Clean & Concentrator Kit (Zymo). mRNA was then transcribed using the mMESSAGE mMACHINE SP6 Transcription Kit (Thermo Fisher) and purified with the RNeasy Mini Kit (Qiagen).
(§2) X. laevis frog oocytes were shipped from Ecocyte Bioscience, Germany, and stored at 18°C in 50% Leibovitz’s L-15 medium (Gibco) supplemented with additional 0.25 mg/mL gentamicin, 1 mM L-glutamine, and 15 mM HEPES, pH 7.6.
(§3) For wild-type (WT) and conventional mutant channels, oocytes were injected with 40 nL of 120 ng/μL FaNaC mRNA via glass micropipettes backfilled with mineral oil, using a Nanoliter2010 injector (World Precision Instruments). For the expression of noncanonical mutant channels, aminoacylated tRNA was first resuspended in 2 μL of water and deprotected by 5 min in UV light via a fan-cooled coil of 365-nm realUV LED strip lights (Waveform Lighting). Deprotected aminoacylated tRNA was then mixed 2:1 with 700 ng/μL UAG mutant FaNaC mRNA, and 40 nL of this mix was injected into oocytes.
(§4) Two-electrode voltage clamp experiments were performed 24–36 h after injection. The oocyte was placed in an RC-3Z bath (Warner Instruments) and perfused continuously with ND96 solution (NaCl 96 mM, KCl 2 mM, CaCl2 1.8 mM, MgCl2 1 mM, HEPES 5 mM, pH 7.5 with NaOH). In experiments without Ca^2+, CaCl2 was replaced with BaCl2, and oocytes were injected with 40 nL of water or 25 mM EGTA 10–45 min before recording. In experiments probing increased Ca^2+ concentrations, extracellular solutions contained NaCl 140 mM, HEPES 10 mM, CaCl2 1 mM, pH 7.5 with NaOH; or NMDG-Cl 126.5 mM, HEPES 10 mM, CaCl2 10 mM, pH 7.5 with NaOH (leaving a small amount of Na^+ in the final solution), based on previous work ([21]). ND96 (or the latter solutions) alone or containing peptides was rapidly exchanged via a VCS-8 pinch-valve control perfusion system (Warner Instruments). […] Oocytes were clamped at −80 mV for all experiments with an Oocyte Clamp OC-725D amplifier (Warner Instruments) and Axon Digidata 1550B digitizer ([…]). Data were recorded at 1000 Hz and filtered at 100–200 Hz. 50 Hz noise was eliminated with a Hum Bug (Digitimer). In measuring reversal potentials in normal and high Ca^2+ solutions, 150 ms voltage ramps from −80 mV to 80 mV were applied continuously, before and during FMRFa application. The resulting “current ramp” in the absence of FMRFa was subtracted from that during peak FMRFa-gated current to plot the FMRFa-induced current-voltage relationship.
(§5) Current amplitude was measured in Clampfit 11.1 (Molecular Devices), and subsequent data analyses were performed in Prism v9 (GraphPad Software). For peptide concentration-response data, peak current amplitude was normalized to maximum, plotted against peptide concentration, and fitted with four-parameter nonlinear regression (Prism v9) for each oocyte. These were averaged to give the reported means ± SE in the main text. For display in figures, a single fit to the average normalized responses (±SE) is shown. […] Therefore, in most M. fuliginosus/LMRFa experiments only, just two LMRFa applications were used: one test concentration and one 10 μM for normalization. This yielded n = 3 oocytes for responses to different concentrations, against which a single curve was fitted and half-maximal effective concentration (EC50) was calculated. […]
For orientation: In two-electrode clamp one electrode senses voltage and the other passes current.

The next assay concerns M. fuliginosus FaNaC1. As to the kind of experiment: Two-electrode voltage clamp of oocytes expressing M. fuliginosus FaNaC1. The class given is cell-based, Malacoceros fuliginosus. The note with it: for peptide potency/activity compared to FMRFa (in words): Fig. 2 A.
Source text: as §1, §2, §3, §4, §5

A further assay deals with clade 1 FaNaCs. The note with it: cited from earlier work; for sensitivity to native peptides (in words): extant clade 1 FaNaCs ref 9,27.
Assay [2] concerns M. fuliginosus FaNaC1 F129 A/L/Q mutants. More on the design: method as in PMID 38337033. The settings on record: conventional F129 A/L/Q mutants ref 15; cited from earlier work.
In a further assay the test system is Helix aspersa FaNaC. Details: method as in PMID 9343851. The settings on record: stated as shared by A. kurodai FaNaC and H. aspersa FaNaC ref 27; cited from earlier work.
The test system of assay [3] is M. fuliginosus FaNaC1 position α3-F129 UAG mutant. Kind of assay: Two-electrode voltage clamp, nonsense suppression at F129 (UAG mutant mRNA and phenylalaninylated tRNA). The class given is cell-based, Malacoceros fuliginosus. The note with it: UAG mutant mRNA and phenylalaninylated tRNA (not shown).
In the next assay the test system is A. kurodai FaNaC F188Y. Kind of assay: Two-electrode voltage clamp, conventional mutant F188Y. The class given is cell-based, Aplysia kurodai.
Source text: as §1, with “(Qiagen). […]” for “(Qiagen).”
(§6) Two-electrode voltage clamp experiments were performed 24–36 h after injection. […] Data were recorded at 1000 Hz and filtered at 100–200 Hz. […]
(§7) Current amplitude was measured in Clampfit 11.1 (Molecular Devices), and subsequent data analyses were performed in Prism v9 (GraphPad Software). […] This yielded n = 3 oocytes for responses to different concentrations, against which a single curve was fitted and half-maximal effective concentration (EC50) was calculated. […]

The subject of the next assay is A. kurodai FaNaC F188Phe. As to the kind of experiment: Two-electrode voltage clamp, nonsense suppression mutant F188Phe. The class given is cell-based, Aplysia kurodai.
Source text: as §1
(§8) Noncanonical amino acids were incorporated into positions F188 and F453 of A. kurodai FaNaC via a nonsense suppression approach using an amber stop codon (TAG/UAG) and modified Tetrahymena thermophila Gln73 tRNA (THG73) ([19],[20]). […]
as §6
(§9) Current amplitude was measured in Clampfit 11.1 (Molecular Devices), and subsequent data analyses were performed in Prism v9 (GraphPad Software). […]

Assay [4] has as its system A. kurodai FaNaC F188hPhe. As to the kind of experiment: Two-electrode voltage clamp, nonsense suppression mutant F188hPhe. The class given is cell-based, Aplysia kurodai. The note with it: concentrations up to 100 μM.
Source text: as §1, §8, §6, §9

For a further assay, the system named is clade 2 FaNaCs. The settings on record: extant clade 2 FaNaCs ref 9,23,27; cited from earlier work.
The subject of a further assay is A. kurodai FaNaC F453Phe. Kind of assay: Two-electrode voltage clamp, nonsense suppression mutant F453Phe. The class given is cell-based, Aplysia kurodai.
Source text: as §1, §8, §6, §9

Another assay relates to A. kurodai FaNaC F188Cha. Kind of assay: Two-electrode voltage clamp, nonsense suppression mutant F188Cha. The class given is cell-based, Aplysia kurodai. The settings on record: concentrations up to 100 μM.
Source text: as §1, §8, §6, §9

The subject of assay [5] is A. kurodai FaNaC F453hPhe. As to the kind of experiment: Two-electrode voltage clamp, nonsense suppression mutant F453hPhe. The class given is cell-based, Aplysia kurodai.
Source text: as §1, §8, §6, §9

The subject of the next assay is A. kurodai FaNaC F453Y. As to the kind of experiment: Two-electrode voltage clamp, conventional mutant F453Y. The class given is cell-based, Aplysia kurodai.
Source text: as §1, with “(Qiagen). […]” for “(Qiagen).”
as §6, §7

Another assay relates to A. kurodai FaNaC F453Cha. Kind of assay: Two-electrode voltage clamp, nonsense suppression mutant F453Cha. The class given is cell-based, Aplysia kurodai.
Source text: as §1, §8, §6, §9

For assay [6], the target named is Malacoceros fuliginosus FaNaC1, wild type (Malacoceros fuliginosus). This is another data set of the same source.
In assay [7] the target is Aplysia kurodai FMRFa-gated sodium channel (FaNaC), wild type (Aplysia kurodai).
Setting [8] is: X. laevis oocytes, -80 mV, mean ± SE.

Where “and” joins values, the source holds several entries; their conditions need not be identical. Identical values can stand only once. Entries after “also recorded” stand apart in the source; their conditions may differ. Like-named read-outs stand apart in the source and are kept apart here. No end group written: not given here.

Results on 14 molecules are retold here after publication PMC11993918, “Flipped binding modes for the same agonist in closely related neuropeptide-gated ion channels” (Biophysical Journal, 2025).

Take (F3-Phe)MRFa (peptide): in assay [1], the EC50 of current activation, two-electrode voltage clamp, X. laevis oocytes is 0.011 µM.
Take “AMRFa: synthetic FMRFa analog, F1 replaced with smaller hydrophobic side chain (A) (AMRF-NH2)”: the “peptide potency/activity compared to FMRFa (in words)” value in the assay with A. kurodai FaNaC (X. laevis oocytes) is listed as “activated no current”; with M. fuliginosus FaNaC1 (X. laevis oocytes), “similarly to FMRFa”.
Regarding “Ac-FMRFa: FMRFa with N-terminal acetylation”, the “peptide potency/activity compared to FMRFa (in words)” value in the assay on A. kurodai FaNaC (X. laevis oocytes) is on record as “little effect”; in the assay with M. fuliginosus FaNaC1 (X. laevis oocytes), “increased potency”.
For the molecule “FKRFa: FMRFa analog, M2 replaced with lysine (FKRF-NH2)”, the “peptide potency/activity compared to FMRFa (in words)” value in the assay on A. kurodai FaNaC (X. laevis oocytes) is given as “no activity”; in the assay on M. fuliginosus FaNaC1 (X. laevis oocytes) it was “no significant effect on potency”.
For the molecule “FMKFa: FMRFa analog, R3 replaced with lysine; also a native peptide (FMKF-NH2)”, in the assay with clade 1 FaNaCs, the “sensitivity to native peptides (in words)” value is “sensitive”. Also, the “activation by peptide (in words)” value in the assay on clade 1 FaNaCs (various mollusk FaNaCs ref 7,9) is recorded as “activated”.
“FMQFa: FMRFa analog, R3 replaced with glutamine (FMQF-NH2)”: the “currents at 100 μM peptide” value in the assay on A. kurodai FaNaC (100 μM) was “no currents”. For the same molecule, in the assay with A. kurodai FaNaC (X. laevis oocytes), the “peptide potency/activity compared to FMRFa (in words)” value is given as “total reduction in potency”.
Take “FMRAa: FMRFa analog, F4 replaced with alanine (FMRA-NH2)”: the “peptide potency/activity compared to FMRFa (in words)” value in the assay with M. fuliginosus FaNaC1 (X. laevis oocytes) is recorded as “abolished peptide potency completely”.
Same read-out and setting: next, “FMRF-OMe: FMRF with C-terminal O-methylester”: “drastically reduced activation”; “FMRVa: FMRFa analog, F4 replaced with valine (FMRV-NH2)”: “did not significantly affect peptide potency”.
Take “FVRFa: FMRFa analog, M2 replaced with valine (FVRF-NH2)”: the “peptide potency/activity compared to FMRFa (in words)” value was “significantly less potent than FMRFa” in the assay with A. kurodai FaNaC (X. laevis oocytes) and “no significant effect on potency” in the assay with M. fuliginosus FaNaC1 (X. laevis oocytes).
As usually defined, the EC50 is the midpoint of the concentration-response curve. With H-Phe-Met-Arg-Phe-NH2 [FMRFa], the “sensitivity to native peptides (in words)” value in the assay on clade 1 FaNaCs was “sensitive”. Further, the “sensitivity to FMRFa (in words)” value in assay [2] is listed as “reduced sensitivity to FMRFa”. Further, the EC50 in the assay on A. kurodai FaNaC (setting [8]) is 5.48 µM and 5.5 µM; with Helix aspersa FaNaC it was 3 to 5 µM; in the assay on M. fuliginosus FaNaC1 (setting [8]), 0.35 ± 0.06 µM. Moreover, the “FMRFa-gated currents (in words)” value in [3] is “no FMRFa-gated currents”. Besides, the “FMRFa activation (in words)” value in the assay with A. kurodai FaNaC F188Y is recorded as “activated by FMRFa at micromolar concentrations”. The “FMRFa activation/potency (in words)” value with A. kurodai FaNaC F188Phe was “decreased FMRFa potency; also recorded: activated by FMRFa at micromolar concentrations”. For the same molecule, the “response to FMRFa (in words)” value (in assay [4]; in the assay on A. kurodai FaNaC F188Cha) was “little or no response” throughout. Besides, in the assay with clade 2 FaNaCs, the “binding of native peptides (in words)” value is given as “bind”. The “FMRFa potency compared to regular WT (in words)” value in the assay on A. kurodai FaNaC F453Phe is on record as “decreased FMRFa potency”. The figures for the “FMRFa sensitivity (in words)” value (in assay [5]; in the assay with A. kurodai FaNaC F453Y; in the assay with A. kurodai FaNaC F453Cha) were “relatively little effect on FMRFa sensitivity”, “abolished FMRFa sensitivity” and “relatively little effect on FMRFa sensitivity”, respectively.
As to “LMRFa: synthetic FMRFa analog, F1 replaced with smaller hydrophobic side chain (L) (LMRF-NH2)”, the “peptide potency/activity compared to FMRFa (in words)” value was “activated no current” in the assay with A. kurodai FaNaC (X. laevis oocytes) and “similarly to FMRFa” in the assay on M. fuliginosus FaNaC1 (X. laevis oocytes). The “deactivation after peptide application” value in the assay with M. fuliginosus FaNaC1 was “especially slow”.
With “SGFMRFa: FMRFa with N-terminal serine-glycine insertion (SGFMRF-NH2)”, the “peptide potency/activity compared to FMRFa (in words)” value with A. kurodai FaNaC (X. laevis oocytes) is on record as “abolished activity”; with M. fuliginosus FaNaC1 (X. laevis oocytes) it was “no effect”.

B1: H-Phe-Met-Arg-Phe-NH2 (FMRFamide) (peptide)
peptide: H-FMRF-NH2
Turning to B1, the EC50 of current activation, two-electrode voltage clamp, X. laevis oocytes in [6] stood at 0.35 µM; in assay [7] it was 5.48 µM.
